Test systems include CAKI-1 renal; K-562 leukemia; MCF7 breast; RXF 393 renal; SK-MEL-28 melanoma; SK-MEL-5 melanoma; SN12C renal; SNB-19 CNS; SR leukemia; UACC-257 melanoma.
Common to all, as to experiment: NCI tumour cell line growth inhibition, 48 h

Each structure is given as a SMILES string. Values joined by “and” are separate entries in the source; they are usually repeats but may differ in a detail not shown here. Identical values can stand only once.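 These data come from cells grown in 96-well plates and exposed to compound for 48 hours at five concentrations. GI50 is the concentration that inhibits growth by half. TGI is the concentration that stops growth completely.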 A value given as a limit tells only on which side of the number the result lay.

In the case of `O=c1c(O)cccn1CCCN(CCCn1cccc(O)c1=O)CCn1cccc(O)c1=O`, the GI50 is 4.79 µM with CAKI-1 renal; 3.97 µM in the assay on K-562 leukemia; 3.89 µM in the assay on MCF7 breast; 1.86 µM with RXF 393 renal; 2.31 µM in the assay on SK-MEL-28 melanoma; 2.67 µM with SK-MEL-5 melanoma. Further, the GI50 was 3.41 µM with SN12C renal, 3.78 µM in the assay with SNB-19 CNS, 0.522 µM with SR leukemia and 3.42 µM with UACC-257 melanoma. In addition, the TGI was above 100 µM with CAKI-1 renal; above 100 µM in the assay on K-562 leukemia; above 100 µM in the assay with MCF7 breast; 9.83 µM with RXF 393 renal; above 100 µM in the assay with SK-MEL-28 melanoma; above 100 µM with SK-MEL-5 melanoma. Further, the TGI with SN12C renal was above 100 µM; in the assay on SNB-19 CNS, above 100 µM; in the assay on SR leukemia, above 100 µM; in the assay with UACC-257 melanoma, 22.4 µM.
In the case of `O=C1CCC(N2C(=O)c3cccc(NCCCC4CCN(CCNC(=O)c5cc6c(o5)C(=O)c5ccccc5C6=O)CC4)c3C2=O)C(=O)N1` (stereo not given), the GI50 with CAKI-1 renal is 2.17 µM; in the assay with K-562 leukemia, 0.654 µM; in the assay on MCF7 breast, 0.0102 µM; with RXF 393 renal, 1.03 µM; in the assay on SK-MEL-28 melanoma it was 1.88 µM; in the assay with SK-MEL-5 melanoma, 0.163 µM. For the same compound, the GI50 was 0.252 µM in the assay on SN12C renal, 0.673 µM with SNB-19 CNS, 0.106 µM with SR leukemia and 0.632 µM in the assay with UACC-257 melanoma. In addition, the TGI came to 9.13 µM in the assay on CAKI-1 renal; 6.3 µM in the assay on K-562 leukemia; 0.215 µM in the assay on MCF7 breast; 3.08 µM with RXF 393 renal; 4.57 µM in the assay on SK-MEL-28 melanoma; 0.303 µM in the assay on SK-MEL-5 melanoma. The TGI in the assay on SN12C renal was 0.806 µM; in the assay with SNB-19 CNS, 1.97 µM; in the assay with SR leukemia, above 30.1 µM; with UACC-257 melanoma it was 1.87 µM.
For the compound `CCOC(=O)C1=C(C)N2C(=NC3=C(CCC/C3=C\c3ccc(Cl)cc3)C2c2ccc(Cl)cc2)S1` (stereo not given), the GI50 with CAKI-1 renal is 5.08 µM; with K-562 leukemia, 3.45 µM; in the assay with MCF7 breast it was 2.44 µM; with RXF 393 renal, 1.88 µM; with SK-MEL-28 melanoma, 3.07 µM; in the assay on SK-MEL-5 melanoma, 2.93 µM. Also, the GI50 in the assay with SN12C renal was 3.55 µM; in the assay with SNB-19 CNS, 3.35 µM; with SR leukemia it was 1.65 µM; with UACC-257 melanoma it was 2.05 µM. In addition, the TGI in the assay with CAKI-1 renal was above 100 µM; with K-562 leukemia it was 11.8 µM; in the assay with MCF7 breast, 11 µM; in the assay with RXF 393 renal, 3.51 µM; in the assay with SK-MEL-28 melanoma, 11.4 µM; in the assay with SK-MEL-5 melanoma, 11.4 µM. The TGI was 21.6 µM with SN12C renal, above 100 µM with SNB-19 CNS, 3.95 µM in the assay on SR leukemia and 5.18 µM with UACC-257 melanoma.
As for `CC1=C(Cl)C[C@@H](/C(C)=C\Cl)O[C@@]1(O)C(Br)Br`, the TGI with CAKI-1 renal was 35.4 µM; in the assay with K-562 leukemia it was above 100 µM; with MCF7 breast it was 49.3 µM; with RXF 393 renal, 62.2 µM; in the assay with SK-MEL-28 melanoma, above 100 µM; with SK-MEL-5 melanoma it was 54.9 µM. Moreover, the TGI in the assay on SN12C renal is 37.2 µM; in the assay with SNB-19 CNS it was above 100 µM; in the assay on SR leukemia it was 84.6 µM; with UACC-257 melanoma it was above 100 µM.
Take `C=CCn1c(=O)c2cnc(Nc3ccc(N4CCN(C)CC4)cc3)nc2n1-c1cccc(C(C)(C)O)n1`: the GI50 is 0.24 µM and 0.152 µM in the assay with CAKI-1 renal; 0.315 µM and 0.282 µM in the assay on K-562 leukemia; 0.323 µM in the assay with MCF7 breast; 0.0855 µM and 0.232 µM in the assay with RXF 393 renal; 4.61 µM and 4.37 µM in the assay with SK-MEL-28 melanoma; 0.231 µM and 0.442 µM in the assay with SK-MEL-5 melanoma. The GI50 is 0.855 µM and 0.479 µM in the assay on SN12C renal; 1.17 µM and 0.526 µM in the assay on SNB-19 CNS; 0.269 µM and 0.253 µM in the assay with SR leukemia; 0.675 µM and > 4.69 µM in the assay on UACC-257 melanoma. The TGI with CAKI-1 renal was 16.7 µM and > 10 µM; with K-562 leukemia, 17.8 µM and > 7.64 µM; in the assay with MCF7 breast it was 21.4 µM and > 10 µM; in the assay with RXF 393 renal it was 0.531 µM and 1.14 µM; in the assay with SK-MEL-28 melanoma it was 20.6 µM and > 10 µM; in the assay on SK-MEL-5 melanoma, 1.04 µM and 7.76 µM. The TGI is above 100 µM with SN12C renal; above 100 µM with SNB-19 CNS; 1.67 µM and 2.07 µM in the assay with SR leukemia; 18.7 µM and > 10 µM in the assay on UACC-257 melanoma.
Regarding `CCSc1nc(N)c(C#N)c(-c2ccco2)c1C#N`, the GI50 with CAKI-1 renal was 13.7 µM; in the assay on K-562 leukemia, 43.7 µM; with MCF7 breast it was 15 µM; in the assay on RXF 393 renal, 56.4 µM; with SK-MEL-28 melanoma it was above 100 µM; in the assay on SK-MEL-5 melanoma it was 33.3 µM. Also, the GI50 in the assay on SN12C renal is above 100 µM; in the assay with SNB-19 CNS, 51.2 µM; in the assay on SR leukemia it was 20.2 µM; with UACC-257 melanoma it was 31.7 µM. Also, the TGI is 67.6 µM in the assay on CAKI-1 renal; above 100 µM with K-562 leukemia; above 100 µM with MCF7 breast; above 100 µM with RXF 393 renal; above 100 µM in the assay on SK-MEL-28 melanoma; above 100 µM in the assay with SK-MEL-5 melanoma. Moreover, the TGI in the assay on SN12C renal is above 100 µM; in the assay on SNB-19 CNS it was above 100 µM; in the assay on SR leukemia, above 100 µM; in the assay with UACC-257 melanoma, 80.2 µM.
With `NNc1c2ccccc2nc2ccccc12`, the GI50 in the assay with CAKI-1 renal is 3.29 µM; with K-562 leukemia it was 3.32 µM; with MCF7 breast, 3.77 µM; with RXF 393 renal it was 7.4 µM; with SK-MEL-28 melanoma it was 10.7 µM; in the assay on SK-MEL-5 melanoma it was 2.14 µM. Also, the GI50 in the assay with SN12C renal is 6.44 µM; in the assay with SNB-19 CNS, 5.89 µM; with SR leukemia, 3.4 µM; with UACC-257 melanoma, 4.06 µM. Moreover, the TGI in the assay on CAKI-1 renal was found to be 19.4 µM; with K-562 leukemia, 64.7 µM; with MCF7 breast it was 33.7 µM; in the assay with RXF 393 renal it was 24.4 µM; in the assay on SK-MEL-28 melanoma it was 60.7 µM; in the assay with SK-MEL-5 melanoma, 13.3 µM. Further, the TGI in the assay on SN12C renal is 56.7 µM; in the assay with SNB-19 CNS it was above 100 µM; in the assay with SR leukemia, 19.8 µM; in the assay on UACC-257 melanoma it was 36.2 µM.
Regarding `CCN(CC)C(=O)COc1cc2c(O)c3c(O)c(C)c4c(c13)C(=O)C(C)(OC=CC(OC)C(C)C(OC(C)=O)C(C)C(O)C(C)C(O)C(C)C=CC=C(C)C(=O)N2)O4` (stereo not given), the TGI in the assay on CAKI-1 renal, with K-562 leukemia, in the assay with MCF7 breast, in the assay on RXF 393 renal, with SK-MEL-28 melanoma and in the assay with SK-MEL-5 melanoma was above 100 µM throughout. Besides, the TGI with SN12C renal, in the assay with SNB-19 CNS, in the assay with SR leukemia and with UACC-257 melanoma was above 100 µM throughout.

The values are drawn from PubChem BioAssay (NCI).
